Source: US11691949B2, “Quinoline sulfonamide compounds and their use as antibacterial agents” (OTAGO INNOVATION LIMITED, priority 2017, dated 2023)
≈ marks a conversion by molar mass, not a printed value. Read-outs that look alike come from different tables or passages of the source.

Key:
Format in all cases: cell-based
[1] = tested on: S. uberis ATCC 19436; experiment: MIC by broth microdilution, S. uberis; details: Streptococcus uberis
Method in brief: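 Streptococcus uberis ATCC 19436 was tested in Todd Hewitt Broth by broth microdilution in 96-well flat bottom plates, in biological triplicate. Overnight cells were diluted to OD600 of approximately 0.025, giving about 5×10^5 cfu/mL in the wells. Compounds were serially diluted two-fold to 200 μl, incubated 24 h at 37° C. and 200 rpm, and the MIC was taken from OD600.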

[2] = tested on: S. aureus ATCC 6538; experiment: MIC by broth microdilution, S. aureus; details: Staphylococcus aureus
Method in brief: (§1)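 Overnight cultures diluted to ~5×10^5 cfu/mL final; S. aureus in TSB and CAMHB, E. coli in LB and CAMHB, zinc sulphate to 50 μM final as required; two-fold serial dilutions. MIC = lowest concentration with no growth by OD600 after 24 h, 37° C, 200 rpm. MBC by Miles-Misra drop-plate viability count.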

[3] = tested on: E. coli ATCC 10596; experiment: MIC by broth microdilution, E. coli; details: Escherichia coli
Method in brief: as §1

[4] = tested on: S. uberis ATCC 19436; experiment: MBC by Miles-Misra drop-plate method, S. uberis; details: Streptococcus uberis
Method: (§2) Antibacterial susceptibility testing was performed in triplicate (biological) by measuring minimum inhibitory concentrations (MICs) by broth microdilution in 96-well flat bottom microtiter plates (ThermoFisher Scientific, New Zealand). S. uberis ATCC 19436, S. aureus ATCC 6538, or E. coli ATCC 10596 cells grown overnight were diluted to an OD600 of approximately 0.025, so that the final concentration of cells in the MIC assay was approximately 5×10^5 cfu/mL in media as follows: S. uberis; Todd Hewitt Broth (THB), S. aureus; Tryptic Soy Broth (TSB) and Cation Adjusted Muller Hinton Broth (CAMHB), and E. coli; Lysogeny Borth (LB) and CAMHB, before being dispensed into microtiter wells. As required additional sterile Zinc Sulphate (Heptahydrate) was supplemented into the media, so the final concentration was 50 μM. Test compounds were added to starting wells and two-fold serial dilutions were undertaken to generate a range of inhibitor concentrations at a final volume of 200 μl. Media and test compound-free (untreated) controls were included in each microtiter plate in triplicate. After 24 h incubation at 37° C. and 200 rpm, the OD600 of wells were read using a Varioskan Flash plate reader (ThermoFisher Scientific, New Zealand). The MIC was reported as the lowest concentration of the test compound for which no growth occurred, as determined by OD600 readings. The minimum bactericidal concentration (MBC) was determined using the Miles-Misra drop-plate method to measure the viability of cells in response to test compound challenge.

[5] = tested on: S. aureus ATCC 6538; experiment: MBC by Miles-Misra drop-plate method, S. aureus; details: Staphylococcus aureus
Method: as §2

[6] = tested on: E. coli ATCC 10536; experiment: MBC by Miles-Misra drop-plate method, E. coli; details: Escherichia coli
Method: as §2

[7] = ATCC19436, No Zinc, read-out: S. uberis ATCC 19436 MIC
[8] = ATCC19436, Zinc (50 μM), read-out: S. uberis ATCC 19436 MIC
[9] = ATCC6538, No Zinc, read-out: S. aureus ATCC 6538 MIC
[10] = ATCC6538, Zinc (50 μM), read-out: S. aureus ATCC 6538 MIC
[11] = ATCC 10536 / ATCC 10596, No Zinc, read-out: E. coli ATCC 10536 MIC
[12] = ATCC 10536 / ATCC 10596, Zinc (50 μM), read-out: E. coli ATCC 10536 MIC
[13] = ATCC19436, No Zinc, read-out: S. uberis ATCC 19436 MBC
[14] = ATCC19436, Zinc (50 μM), read-out: S. uberis ATCC 19436 MBC
[15] = ATCC6538, No Zinc, read-out: S. aureus ATCC 6538 MBC
[16] = ATCC6538, Zinc (50 μM), read-out: S. aureus ATCC 6538 MBC
[17] = ATCC10536, No Zinc, read-out: E. coli ATCC 10536 MBC
[18] = ATCC10536, Zinc (50 μM), read-out: E. coli ATCC 10536 MBC

| MIC [1, 7] | MIC [1, 8] | MIC [2, 9] | MIC [2, 10] | MIC [3, 11] | MIC [3, 12] | Structure (SMILES) | MBC [4, 13] | MBC [4, 14] | MBC [5, 15] | MBC [5, 16] | MBC [6, 17] | MBC [6, 18] | other results |
| --- | --- | --- | --- | --- | --- | --- | --- | --- | --- | --- | --- | --- | --- |
|  |  |  |  |  |  | CN1CCN(CCCNCc2ccc3cccc(NS(=O)(=O)c4ccc(C(F)(F)F)cc4)c3n2)CC1 [ZDR117, N-(2-(((3-(4-Methylpiperazin-1-yl)propyl)amino)methyl)quinolin-8-yl)-4-(trifluoromethyl)benzenesulfonamide di-trifluoroacetate] |  |  |  |  |  |  | MIC ([1]; ATCC19436, read-out: S. uberis ATCC 19436 MIC, No Zinc): 16 µg/mL (≈ 30.7 µM); MIC ([1]; ATCC19436, read-out: S. uberis ATCC 19436 MIC, Zinc (50 μM)): 4 µg/mL (≈ 7.67 µM); MIC ([2]; ATCC6538, read-out: S. aureus ATCC 6538 MIC, No Zinc): 64 µg/mL (≈ 123 µM); MIC ([2]; ATCC6538, read-out: S. aureus ATCC 6538 MIC, Zinc (50 μM)): 64 µg/mL (≈ 123 µM); MIC ([3]; ATCC 10536 / ATCC 10596, read-out: E. coli ATCC 10536 MIC, No Zinc): 128 µg/mL (≈ 245 µM); MIC ([3]; ATCC 10536 / ATCC 10596, read-out: E. coli ATCC 10536 MIC, Zinc (50 μM)): 32 µg/mL (≈ 61.3 µM); MBC ([4]; ATCC19436, read-out: S. uberis ATCC 19436 MBC, No Zinc): 16 µg/mL (≈ 30.7 µM); MBC ([4]; ATCC19436, read-out: S. uberis ATCC 19436 MBC, Zinc (50 μM)): 4 µg/mL (≈ 7.67 µM); MBC ([5]; ATCC6538, read-out: S. aureus ATCC 6538 MBC, No Zinc): 64 µg/mL (≈ 123 µM); MBC ([5]; ATCC6538, read-out: S. aureus ATCC 6538 MBC, Zinc (50 μM)): 64 µg/mL (≈ 123 µM); MBC ([6]; ATCC10536, read-out: E. coli ATCC 10536 MBC, No Zinc): 256 µg/mL (≈ 491 µM); MBC ([6]; ATCC10536, read-out: E. coli ATCC 10536 MBC, Zinc (50 μM)): 64 µg/mL (≈ 123 µM) |
| 4 µg/mL (≈ 7.06 µM) | 0.125 µg/mL (≈ 0.221 µM) | 4 µg/mL (≈ 7.06 µM) | 4 µg/mL (≈ 7.06 µM) | > 256 µg/mL | > 256 µg/mL | O=S(=O)(Nc1cccc2ccc(/C=N/NC(=S)NCCN3CCOCC3)nc12)c1ccc(C(F)(F)F)cc1 [ZDR119, (E)-N-(2-Morpholinoethyl)-2-((8-((4-(trifluoromethyl)phenyl)sulfonamido)quinolin-2-yl)methylene)hydrazine-1-carbothioamide] | 16 µg/mL (≈ 28.2 µM) | 1 µg/mL (≈ 1.76 µM) | > 256 µg/mL | 32 µg/mL (≈ 56.5 µM) | > 256 µg/mL | > 256 µg/mL |  |
| 32 µg/mL (≈ 73.3 µM) | 0.5 µg/mL (≈ 1.15 µM) | 16 µg/mL (≈ 36.7 µM) | 16 µg/mL (≈ 36.7 µM) | > 256 µg/mL | > 256 µg/mL | CC(=O)N/N=C/c1ccc2cccc(NS(=O)(=O)c3ccc(C(F)(F)F)cc3)c2n1 [ZDR120, (E/Z)—N-(2-((2-Acetylhydrazineylidene)methyl)quinolin-8-yl)-4-(trifluoromethyl)benzenesulfonamide] | > 256 µg/mL | 1 µg/mL (≈ 2.29 µM) | > 256 µg/mL | > 256 µg/mL | > 256 µg/mL | > 256 µg/mL |  |
| 32 µg/mL (≈ 64.1 µM) | 2 µg/mL (≈ 4 µM) | 16 µg/mL (≈ 32 µM) | 16 µg/mL (≈ 32 µM) | > 256 µg/mL | > 256 µg/mL | O=C(N/N=C/c1ccc2cccc(NS(=O)(=O)c3ccc(C(F)(F)F)cc3)c2n1)c1cccnc1 [ZDR121, (E)-N-(2-((2-Nicotnoylhydrazineylidene)methyl)quinolin-8-yl)-4-(trifluoromethyl)benzenesulfonamide] | 256 µg/mL (≈ 513 µM) | 32 µg/mL (≈ 64.1 µM) | 64 µg/mL (≈ 128 µM) | 256 µg/mL (≈ 513 µM) | > 256 µg/mL | > 256 µg/mL |  |
| 32 µg/mL (≈ 64.1 µM) | 2 µg/mL (≈ 4 µM) | 16 µg/mL (≈ 32 µM) | 16 µg/mL (≈ 32 µM) | > 256 µg/mL | > 256 µg/mL | O=C(N/N=C/c1ccc2cccc(NS(=O)(=O)c3ccc(C(F)(F)F)cc3)c2n1)c1ccncc1 [ZDR122, (E)-N-(2-((2-Isonicotinoylhydrazneylidene)methyl)quinolin-8-yl)-4-(trifluoromethyl)benzenesulfonamide] | 128 µg/mL (≈ 256 µM) | 32 µg/mL (≈ 64.1 µM) | 32 µg/mL (≈ 64.1 µM) | 128 µg/mL (≈ 256 µM) | > 256 µg/mL | > 256 µg/mL |  |
| 8 µg/mL (≈ 20.2 µM) | 0.125 µg/mL (≈ 0.316 µM) | 4 µg/mL (≈ 10.1 µM) | 4 µg/mL (≈ 10.1 µM) | > 256 µg/mL | > 256 µg/mL | O=S(=O)(Nc1cccc2ccc(/C=N/O)nc12)c1ccc(C(F)(F)F)cc1 [ZDR125, (E)-N-(2-((Hydroxyimino)methyl)quinolin-8-yl)-4-(trifluoromethyl)benzenesulfonamide] | 8 µg/mL (≈ 20.2 µM) | 0.5 µg/mL (≈ 1.26 µM) | > 256 µg/mL | > 256 µg/mL | > 256 µg/mL | > 256 µg/mL |  |
